According to US12539296B2, “Montelukast for the treatment of erosive hand osteoarthritis” (MMC INTELLECTUAL PROPERTY INSTITUTE, S.L., priority 2018, dated 2026):

How the values were obtained:
[1] = tested on: patient with erosive hand osteoarthritis; test: Efficacy of topical treatment in one patient with erosive hand osteoarthritis (Example 6); type: in vivo, human; conditions: 12 weeks
Method: After a wash-up period of several weeks, the patient started treatment with a topical formulation prepared as disclosed in example 3, with a dosage of about 10 mg daily per hand, spread on the affected zone for a period of 12 weeks.

[2] = tested on: patients with erosive hand osteoarthritis; test: Clinical study of oral 20 mg montelukast daily in patients non-respondent to 10 mg (Example 5); type: in vivo, human
Method: For this study, 9 patients were selected from the previous study (Example 4) among those who were non-respondents to the treatment (10 mg montelukast daily).
In the present study, the patients were administered a daily dose of montelukast of 20 mg by the oral route, also using an orally dispersible composition prepared as disclosed in Example 1, according to a once-daily dosage regimen. The age of the patients ranged from 52 to 78 years.
As in the previous study, for assessing the efficacy in pain relief, the visual analogue scale (VAS) methodology was used, where the pain was assessed on a scale of 0 to 10.
For assessing the efficacy in hand functionality improvement, also a visual analogue scale (VAS) of 0 to 10 was also used, wherein 0 meant full functionality, i.e., full ability to hold objects, and 10 meant absence of functionality, i.e., inability to hold any object
The “initial” values mean the values before starting the treatment, and the “final” values mean the values after completing the treatment.

[3] = tested on: patients with erosive hand osteoarthritis; test: Clinical observational study of oral 10 mg montelukast daily in patients with erosive hand osteoarthritis (Example 4); type: in vivo, human; conditions: 10 mg daily oral, 3 to 16 months
Method: A preliminary clinical observational study was performed in patients suffering from erosive hand osteoarthritis.
50 patients with erosive hand osteoarthritis which were non-respondent or with limited response after treatment with analgesics and/or anti-inflammatories were selected for the study. The patients were administered 10 mg of montelukast daily by the oral route, using an orally dispersible composition prepared as disclosed in Example 1, according to a once-daily dosage regimen.
The following parameters were used to evaluate the efficacy of the treatment: (i) improvement in clinical symptoms; (ii) efficacy in pain relief; and (iii) improvement in radiological evaluation. All assessments were focused on one of the hands of the patients.
The improvement in clinical symptoms was assessed by evaluating the improvement in symptoms such as functionality, stiffness and deformity of the affected hand that entail an improvement in the quality of life of the patients.
For assessing the efficacy in pain relief, the patients were asked to evaluate the pain they felt using the visual analogue scale (VAS) methodology, both before the treatment and at the end of the treatment period.
For assessing the efficacy of the treatment in the radiological parameters of the hand, the following features in the affected joints were evaluated: a) edema, b) subchondral erosions, c) synovitis and d) tenosynovitis. These features were radiologically assessed by means of posteroanterior radiographs of the hand, performed before and after the treatment period. The treatment was considered to provide radiological improvement if there was observable improvement in at least two of the assessed features and no worsening in the remaining features.

patients aged ≥6 years = conditions: for example 200 mg/daily; cited from earlier work
[4] = 20 mg daily oral, beginning vs end of treatment
[5] = topical gel of example 3, about 10 mg daily per hand

## CCC(=O)O[C@]1(C(=O)COC(C)=O)CC[C@H]2[C@@H]3C[C@H](C)C4=CC(=O)C=C[C@]4(C)[C@H]3[C@@H](O)C[C@@]21C [methylprednisolone aceponate]
[1]; topical, once daily
  radiological assessment: progression of the disease
[1]; topical, once daily, no improvement in pain relief
  pain score (VAS, 0-10 scale) remaining under treatment: higher than 5

## CC(C)(O)c1ccccc1CC[C@@H](SCC1(CC(=O)O)CC1)c1cccc(/C=C/c2ccc3ccc(Cl)cc3n2)c1 [montelukast, 2-[1-[[(1R)-1-[3-[(E)-2-(7-chloroquinolin-2-yl)ethenyl]phenyl]-3-[2-(2-hydroxypropan-2-yl)phenyl]propyl]sulfanylmethyl]cyclopropyl]acetic acid]
[2]; 20 mg daily oral
  proportion of patients not responding to 10 mg daily that showed pain relief: ~70%
[2]; 20 mg daily oral, 9 patients
  adverse effects reported: No adverse effects
[2]; 20 mg daily oral, all patients
  improvement in hand functionality: 35%
[2]; 20 mg daily oral, almost 70% of the patients
  pain relief in the responding patients: 55%
[2]; [4]
  final VAS hand functionality score, mean: 4.56±0.39
  final VAS pain score, mean: 3.89±0.54
[2]; after completing 20 mg daily oral treatment, individual values
  VAS hand functionality final, Min - Max: 3-6
[2]; after completing 20 mg daily oral treatment, individual values, scale 0 to 10
  VAS pain final, Min - Max: 1-6
[2]; after completing 20 mg daily oral treatment, scale 0 (full functionality) to 10 (absence)
  VAS hand functionality final, Mean: 4.56
[2]; after completing 20 mg daily oral treatment, scale 0 to 10, 9 patients
  VAS pain final, Mean: 3.89
[2]; before starting 20 mg daily oral treatment (baseline), individual values
  VAS hand functionality initial, Min - Max: 5-8
[2]; before starting 20 mg daily oral treatment (baseline), individual values, scale 0 to 10
  VAS pain initial, Min - Max: 5-9
[2]; before starting 20 mg daily oral treatment (baseline), scale 0 (full functionality) to 10 (absence)
  VAS hand functionality initial, Mean: 7.00
[2]; before starting 20 mg daily oral treatment (baseline), scale 0 to 10, 9 patients
  VAS pain initial, Mean: 7.00
[1]; [5]
  clinical symptoms of osteoarthritis: improvement in the clinical symptoms
  pain relief: significant pain relief
[3]
  additional patients with no worsening of the assessed radiological parameters: 10 patients
[3]; of 50 patients, posteroanterior radiographs
  patients with improvement after radiological evaluation (at least two features improved, none worse): 28 patients
[3]; out of 45 patients with pain before treatment
  patients reporting effective pain relief (VAS reduction of at least 2 units on 0 to 10 scale): 28 patients
[3]; radiological evaluation
  patients with improvement in edema: 19 patients
  patients with improvement in erosions: 14 patients
  patients with improvement in synovitis: 28 patients
  patients with improvement in tenosynovitis: 18 patients
[3]; once-daily, of 50 patients
  patients with improvement in clinical symptoms (functionality, stiffness, deformity): 32 patients
Patients aged ≥6 years
  adverse effects at high doses: does not cause adverse effects
